According to ChEMBL document CHEMBL4665713, “Synthesis and biological evaluation of novel quinazoline-triazole hybrid compounds with potential use in Alzheimer's disease” (Bioorg Med Chem Lett, 2020):

Columns and labels:
Acetylcholinesterase [1] = target: Acetylcholinesterase (Electrophorus electricus, UniProt O42275); experiment: Inhibition of electric eel AChE using acetylthiocholine iodide as substrate preincubated with enzyme for 10 mins prior to substrate addition and measured for 6 mins by Ellman's method
Chain of Acetylcholinesterase (Electrophorus electricus, UniProt O42275) (O42275 whole entry): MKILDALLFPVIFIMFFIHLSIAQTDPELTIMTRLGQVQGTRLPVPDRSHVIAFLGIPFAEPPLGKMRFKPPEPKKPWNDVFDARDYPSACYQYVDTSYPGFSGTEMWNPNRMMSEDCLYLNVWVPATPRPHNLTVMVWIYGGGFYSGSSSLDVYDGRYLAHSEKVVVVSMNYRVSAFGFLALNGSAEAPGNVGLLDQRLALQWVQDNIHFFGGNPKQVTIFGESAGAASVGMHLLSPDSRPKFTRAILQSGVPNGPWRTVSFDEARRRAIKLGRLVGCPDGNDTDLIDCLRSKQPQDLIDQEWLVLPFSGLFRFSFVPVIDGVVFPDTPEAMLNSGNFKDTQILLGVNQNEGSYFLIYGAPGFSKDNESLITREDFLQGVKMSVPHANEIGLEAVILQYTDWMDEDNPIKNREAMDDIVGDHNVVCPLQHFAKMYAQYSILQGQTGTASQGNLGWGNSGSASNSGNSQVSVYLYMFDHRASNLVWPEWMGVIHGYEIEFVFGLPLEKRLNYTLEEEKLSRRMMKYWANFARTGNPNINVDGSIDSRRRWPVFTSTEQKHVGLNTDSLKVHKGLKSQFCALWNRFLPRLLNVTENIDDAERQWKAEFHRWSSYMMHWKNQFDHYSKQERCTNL

Acetylcholinesterase [2] = target: T1, Acetylcholinesterase (Rattus norvegicus, UniProt P37136); experiment: Inhibition of AChE in rat brain using acetylthiocholine iodide as substrate by Ellman's UV-vis spectrophotometric method; type: tissue-based
T1 sequence (P37136 whole entry): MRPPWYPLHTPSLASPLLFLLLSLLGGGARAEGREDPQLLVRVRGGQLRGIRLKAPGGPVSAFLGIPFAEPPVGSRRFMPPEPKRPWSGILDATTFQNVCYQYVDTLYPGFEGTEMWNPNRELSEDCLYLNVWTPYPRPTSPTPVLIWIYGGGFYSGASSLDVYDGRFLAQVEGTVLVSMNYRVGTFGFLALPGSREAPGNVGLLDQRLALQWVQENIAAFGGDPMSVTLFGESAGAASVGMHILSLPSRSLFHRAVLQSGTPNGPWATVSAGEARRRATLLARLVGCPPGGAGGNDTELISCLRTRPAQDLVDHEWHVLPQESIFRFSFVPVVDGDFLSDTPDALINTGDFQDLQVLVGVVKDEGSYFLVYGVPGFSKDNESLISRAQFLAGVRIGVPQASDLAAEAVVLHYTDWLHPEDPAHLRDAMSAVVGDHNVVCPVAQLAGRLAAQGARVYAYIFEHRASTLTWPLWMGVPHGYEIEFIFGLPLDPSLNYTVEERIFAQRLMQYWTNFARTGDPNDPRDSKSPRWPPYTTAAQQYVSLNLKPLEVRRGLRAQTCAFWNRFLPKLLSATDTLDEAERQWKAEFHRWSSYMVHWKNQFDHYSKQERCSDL

[3] = Cytotoxicity against human KB-CCL-17 cells assessed as reduction in cell viability by MTT assay; type: functional, cell-based
HepG2 = experiment: Cytotoxicity against human HepG2 cells assessed as reduction in cell viability by MTT assay; type: functional, cell-based
[4] = Cytotoxicity against human Lu1 cells assessed as reduction in cell viability by MTT assay; type: functional, cell-based

| Compound | IC50 (Acetylcholinesterase [1]) [µM] | IC50 (Acetylcholinesterase [2]) [µM] | IC50 [3] [µM] | IC50 (HepG2) [µM] | IC50 [4] [µM] |
| --- | --- | --- | --- | --- | --- |
| Cc1ccc(Cn2cc(Oc3ccc4cc(C(=O)NC5CCN(Cc6ccccc6)CC5)c(=O)oc4c3)nn2)cc1C | 1.8 | – | – | – | – |
| C#CCOc1ccc2ncnc(NCc3ccccc3)c2c1 | – | 47.7 | 59.7 | > 200 | > 200 |
| C#CCOc1ccc2ncnc(N3CCN(C)CC3)c2c1 | – | 83.9 | > 200 | > 200 | > 200 |
| O=[N+]([O-])c1cccc(-n2cc(COc3ccc4ncnc(NCc5ccccc5)c4c3)nn2)c1 | – | 1.1 | > 200 | 94.1 | > 200 |
| CN1CCN(c2ncnc3ccc(OCc4cn(-c5cccc([N+](=O)[O-])c5)nn4)cc23)CC1 | – | 15.8 | > 200 | > 200 | > 200 |
| CN1CCN(c2ncnc3ccc(OCc4cn(-c5ccccc5[N+](=O)[O-])nn4)cc23)CC1 | – | 37.4 | > 200 | 142 | > 200 |
| O=[N+]([O-])c1ccc(-n2cc(COc3ccc4ncnc(Nc5cccc([N+](=O)[O-])c5)c4c3)nn2)cc1 | – | > 200 | – | – | – |
| C#CCOc1ccc2ncnc(Nc3cccc([N+](=O)[O-])c3)c2c1 | – | > 200 | – | – | – |
| N#Cc1cc(-n2cc(COc3ccc4ncnc(NCc5ccccc5)c4c3)nn2)ccc1C(F)(F)F | – | > 200 | – | – | – |
| O=[N+]([O-])c1ccc(-n2cc(COc3ccc4ncnc(NCc5ccccc5)c4c3)nn2)cc1 | – | > 200 | – | – | – |
| O=[N+]([O-])c1ccccc1-n1cc(COc2ccc3ncnc(NCc4ccccc4)c3c2)nn1 | – | 0.23 | 42.7 | > 200 | > 200 |
| O=[N+]([O-])c1cccc(Nc2ncnc3ccc(OCc4cn(-c5cccc([N+](=O)[O-])c5)nn4)cc23)c1 | – | > 200 | – | – | – |
| N#Cc1cc(-n2cc(COc3ccc4ncnc(Nc5cccc([N+](=O)[O-])c5)c4c3)nn2)ccc1C(F)(F)F | – | > 200 | – | – | – |
| CN1CCN(c2ncnc3ccc(OCc4cn(-c5ccc([N+](=O)[O-])cc5)nn4)cc23)CC1 | – | > 200 | – | – | – |
| CN1CCN(c2ncnc3ccc(OCc4cn(-c5ccc(C(F)(F)F)c(C#N)c5)nn4)cc23)CC1 | – | > 200 | – | – | – |
| O=[N+]([O-])c1cccc(Nc2ncnc3ccc(OCc4cn(-c5ccccc5[N+](=O)[O-])nn4)cc23)c1 | – | 2.06 | > 200 | > 200 | > 200 |
| Cc1c2ccncc2c(C)c2c1[nH]c1ccccc12 [ELLIPTECINE] | – | – | 1.1 | 0.85 | 1.3 |
